Measured values published in paper PMC11415492 (Nature Communications, 2024).
Where “and” joins values, the source holds several entries; their conditions need not be identical. Identical values can stand only once. Entries after “also recorded” stand apart in the source; their conditions may differ. Counter-ions that a name gives are not always drawn.

Experiments:
monkeys = settings: daily dosing prior to SA sessions (14 days); cited from earlier work
male Fisher F-344 rats = settings: preclinical assays in rats; cited from earlier work
hSERT = biological target: T1, hSERT (Homo sapiens, UniProt P31645); assay: hSERT inhibition assay (APP+ fluorescence uptake); format: cell-based
T1 construct: expressed in transfected cells
Description: Stably transfected hSERT-HEK cellular cultures were maintained in Dulbecco’s Minimal Essential Medium (DMEM) with GlutaMAX (Gibco-Thermo Fisher Scientific, Waltham, MA) with the following additions: 10% (v/v) Fetal Bovine Serum (FBS, Atlanta Biologicals, Flowery Branch, GA), 100 U/mL Penicillin 10 μg/mL Streptomycin (Gibco-Thermo Fisher Scientific, Waltham, MA), and 500 μg/mL Geneticin (G418) (Sigma Aldrich, St. Louis, MO). Singly transfected cells were seeded at a density of 0.09 × 10^6 cells/well in poly-D-Lysine (Sigma Aldrich, St. Louis, MO) coated white solid-bottom 96-well plates (Greiner Bio-One, Kremsmünster, Austria). Cells were grown for 44 h in aqueous media at 37 °C under 5% CO2 atmosphere. […] A final solution of 120 μL of PBS was finally added to all corresponding wells for cell maintenance before measuring fluorescence uptake (BioTek H1MF plate reader (BioTek Instruments, Winooski, VT), APP+ excitation and emission wavelengths 436 and 500 nm). Recorded inhibitor values were first subtracted from vehicular values to quantify the respective fluorescence uptake. Data were analyzed using the dose-response-inhibitor nonlinear curve fitting model (log[inhibitor] vs response (four parameters) in Graphpad Prism 10 (Graphpad Software, La Jolla, CA).

hKOR [1] = biological target: T2, hKOR (Homo sapiens, UniProt P41145); assay: G protein activation BRET assay; format: cell-based; settings: for EC50: HEK-293T, (95% CI); for % effect at 100 µM: n = 4
T2 construct: expressed in transfected cells; host or cells: HEK-293T, transient (PEI)

hKOR [2] = biological target: T2, hKOR; assay: KOR [35S]GTPγS agonist assay (commercial); format: biochemical; settings: Log [Drug]
mice = assay: Open field test (locomotion, sedation); format: in vivo, mouse; design: unit not given here; settings: groups not marked Female
Description: Mice were transferred to the testing room 30 min before the experiment to allow for acclimation. Body weight of each mouse was recorded. For experiments with antagonist, pre-treatment, the dosing and after application wait times were the same as for the tail-flick test. Mice were administered an ED50, ED80 or >ED95 doses of test compound (volume of injection 290–350 µL based on body weight). After injection, mice were returned to the home cage and allowed to rest for 30 min. Each mouse was then gently placed in the center of a clear Plexiglas arena (27.31 × 27.31 × 20.32 cm, Med Associates ENV-510) lit with dim light ( ~ 5 lux) and allowed to ambulate freely for 60 minutes. The locomotion of the mouse was tracked by infrared beams embedded along the X, Y, Z axes of the area and automatically recorded. Data was collected on Activity Monitor by Med Associates.
Statistical analysis was performed using the unpaired t-test, two-tailed with Welch’s correction to analyze total locomotion and a two-way ANOVA with Šidák’s multiple comparison test for post hoc comparison to analyze locomotion across time bins.

male rats = settings: cited from earlier work
GDNF = GDNF expression studies (ELISA, brain regions); format: in vivo, rat; settings: aticaprant 1 mg/kg s.c. before oxa-noribogaine 40 mg/kg i.p.
Description: One day or five days after drug administration, rats from these groups as well as non-treated controls were decapitated, brains removed and placed in a stainless-steel rat brain matrix. Coronal slices were taken and the ventral tegmental area (VTA), nucleus accumbens (NAc) and medial prefrontal cortex (mPFC) were dissected and immediately frozen on dry ice. Total protein was isolated from pulverized tissue (8–15 mg tissue per region was harvested from one subject) from these regions. GDNF contents were assayed using the BiosSensis GDNF, Rat, Rapid™ ELISA assay (Biosensis Pty Ltd, SA, Australia). Protease (Thermo Scientific, Rockford, IL), and phosphatase inhibitors (Cocktails 1 and 2, Sigma-Aldrich, St. Louis, MO) were added to the extraction buffers. Regardless of sample weight 230uL of RIPA buffer (Sigma; R0278) was added into each sample along with protease inhibitors. […] Protein concentrations were measured using the bicinchoninic acid protein assay kit (Pierce, Rockford, IL, USA) on a spectrophotometer (iD5, Molecular Devices, Sunnyvale, CA). […] In a separate cohort, we assessed the ability of the kappa antagonist aticaprant to attenuate the oxa-noribogaine induced increase in GDNF in the VTA and mPFC five days after administration. […] Data were analyzed by protein and region using one way ANOVA with Tukey’s multiple comparison test for post hoc comparison.

T2 sequence (P41145 whole entry): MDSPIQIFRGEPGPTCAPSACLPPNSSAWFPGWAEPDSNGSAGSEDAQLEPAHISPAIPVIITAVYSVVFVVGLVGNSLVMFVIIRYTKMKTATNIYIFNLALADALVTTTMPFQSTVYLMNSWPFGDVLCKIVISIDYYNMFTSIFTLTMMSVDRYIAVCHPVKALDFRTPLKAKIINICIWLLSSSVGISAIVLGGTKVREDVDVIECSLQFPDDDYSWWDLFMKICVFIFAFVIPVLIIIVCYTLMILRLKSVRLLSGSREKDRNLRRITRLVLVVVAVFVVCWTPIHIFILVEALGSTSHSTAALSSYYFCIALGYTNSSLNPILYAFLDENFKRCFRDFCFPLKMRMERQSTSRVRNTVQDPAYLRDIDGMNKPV
T1 sequence (P31645 whole entry): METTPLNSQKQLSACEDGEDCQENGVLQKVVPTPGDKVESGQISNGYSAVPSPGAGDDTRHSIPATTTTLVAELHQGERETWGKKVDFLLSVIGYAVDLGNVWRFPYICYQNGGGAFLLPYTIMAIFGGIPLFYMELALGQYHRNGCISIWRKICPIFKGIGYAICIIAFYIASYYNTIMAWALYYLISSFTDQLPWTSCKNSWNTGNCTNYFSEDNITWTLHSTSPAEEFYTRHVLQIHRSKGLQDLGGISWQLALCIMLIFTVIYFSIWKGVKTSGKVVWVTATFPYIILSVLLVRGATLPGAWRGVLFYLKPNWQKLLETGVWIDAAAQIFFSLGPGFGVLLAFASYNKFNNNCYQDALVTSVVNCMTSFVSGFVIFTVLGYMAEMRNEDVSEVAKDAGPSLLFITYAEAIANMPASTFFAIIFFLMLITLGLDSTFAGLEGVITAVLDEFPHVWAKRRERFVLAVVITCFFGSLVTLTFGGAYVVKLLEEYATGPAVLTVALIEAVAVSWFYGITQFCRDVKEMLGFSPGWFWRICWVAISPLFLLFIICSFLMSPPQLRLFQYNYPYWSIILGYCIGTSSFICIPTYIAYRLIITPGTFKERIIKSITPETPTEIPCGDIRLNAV

Molecule: C[C@H]1CNCCc2ccc(Cl)cc21 [Lorcaserin, lorcaserin]
- suppression of cocaine SA (monkeys): the suppression effect completely dissipated as soon as the treatment ended

Molecule: COCC[C@H]1CC2CN3CCc4c([nH]c5ccccc45)[C@](C(=O)OC)(C2)[C@H]13 [18MC, 18-methoxycoronaridine]
- effect on morphine intake (male Fisher F-344 rats): efficacy and duration of effect on morphine intake comparable to ibogaine and noribogaine

Molecule: CN(C)CCCN1c2ccccc2CCc2ccccc21 [Imipramine, imipramine hydrochloride]
- Emax (hSERT): 100%

Molecule: Epi-oxa-ibogamine
- EC50 (hKOR [1]): > 10 µM
- % effect at 100 µM (hKOR [1]): 46%

Molecule: Oxa-ibogamine
- EC50 (hKOR [1]): > 10 µM
- % effect at 100 µM (hKOR [1]): 56%

Molecule: CC[C@H]1C[C@H]2C[C@H]3c4[nH]c5ccc(O)cc5c4CCN(C2)[C@@H]13 [NORIBO]
- response, Fig. S5a concentration-response point (hKOR [2]; M = -4): 66
- response, Fig. S5a concentration-response point (hKOR [2]; M = -4.5): 55
- response, Fig. S5a concentration-response point (hKOR [2]; M = -5): 39
- response, Fig. S5a concentration-response point (hKOR [2]; M = -5.5): 20
- response, Fig. S5a concentration-response point (hKOR [2]; M = -6): 7
- response, Fig. S5a concentration-response point (hKOR [2]; M = -6.5): 2

Molecule: Cc1cc(C)cc([C@@H]2CCCN2Cc2ccc(Oc3ccc(C(N)=O)cc3F)cc2)c1 [Aticaprant (ATI)]
- Open field total locomotion, individual animals (Fig. 3h source data) (mice): 98.5549 and 70.7237 and 76.3275 and 70.7309 and 115.865 and 89.5078 and 98.6683 and 78.3135

Molecule: COc1ccc2c3c([nH]c2c1)CCN(C)CC3 [TBG]
- effect on heroin SA (male rats): no lasting effect on heroin SA

Molecule: Cc1cc(C)cc([C@@H]2CCCN2Cc2ccc(Oc3ccc(C(N)=O)cc3F)cc2)c1 [aticaprant]
- effect of pre-treatment on oxa-noribogaine-induced GDNF increase (GDNF): the induction of GDNF was blocked in both mPFC and VTA; also recorded: prevents the increase of GDNF expression in mPFC and VTA
